Measured values: US6815546B2, “Analogues of camptothecin, their use as medicaments and the pharmaceutical compositions containing them” (Societe de Recherches et d'Applications Scientifiques …, priority 1995, dated 2004)

Experiments:
Format in all cases: cell-based
[1] = system: L1210 (mouse lymphocytic leukemia); assay: Test on cell proliferation (MTT test), L1210; conditions: 48 hours
Experimental: (§1) a. Eight tumoral cell lines are used in this study: L1210 (mouse lymphocytic leukemia), HCT15 and LOVO (cell lines of human colon adenocarcinoma), A549 (human lung carcinoma), A172, U373 et U87 (human glioblastoma). All these lines are obtained from the American Type Culture Collection (ATCC), Rockville, Md. The L1210 cell cultures in suspension are cultured in Dulbecco's modified Eagle's medium (DMEM) (BioWhitaker, Verviers, Belgium) together with 10% of foetal calf serum inactivated by heating, 2 mM of glutamine, 50 μg/ml of penicillin and 50 μg/ml of streptomycin. The HT29 cells are cultured in mono-layer cultures in a McCoy 5a medium (Gibco, Paisley, United Kingdom) together with 10% of foetal calf serum inactivated by heat plus 2 mM of glutamine and 50 μg/ml of gentamycin. The other cells are cultured in an Earle's modified essential medium (EMEM; Gibco, Paisley, United Kingdom) together with 5% foetal calf serum inactivated by heat, 2 mM of glutamine, 50 U/ml of penicillin and 50 μg/ml of streptomycin. All the cell lines are cultured at 37° C. in a humidified atmosphere containing 95% air and 5% CO2.
(§2) Inhibition of the tumor cell line proliferation is determined using an MTT test. 1500 L1210 cells in a culture medium (according to the needs of the cell medium) are seeded in a well of a micro-well plate (tissue culture level: 96 wells, flat bottom) 24 hours before treatment with the compounds to be tested. For these dose-response studies, the cells are incubated with each of the compounds to be tested or their corresponding solvent (controls) for 48 hours over a final concentration range of 1.10^−10 to 1.10^−4 M. All the compounds are dissolved just before use in dimethylsulphoxide (DMSO) at a concentration of 50 mM. Other dilutions of the medicaments are carried out in the culture medium. The final concentration of DMSO never exceeds 0.2% (v/v). As controls, the solutions of medicaments are replaced with the solvent which is diluted successively in the same way as the compounds to be tested.
(§3) After the incubation period, the labeling reagent MTT (3-[4,5-dimethylthiazol-2-yl]-2,5-diphenyltetrazolium bromide; Thiazol blue, Sigma M 565, Sigma, St Louis, Mo.) is added at a final concentration of 0.3 mg/ml to each well. The cells are incubated for 4 hours at 37° C. in a humidified atmosphere. This stage allows the mitochondrial dehydrogenase of the living cells to convert the yellow tetrazolium salt MTT into crimson formazan crystals. The supernatant part is eliminated and the formazan crystals formed are solubilized with DMSO. The resultant coloured solution is quantified by absorbance at 570 nm by using a multi-cuvette scanning spectrophotometer. The data concerning the proliferation is expressed as a percentage of living cells in the treated wells, divided by the living cells in the controls. Each point represents the average of three independent experiments, each experiment represents six determinations.
(§4) The results are expressed as percentages of the calculated proliferation by the optical density (OD) of the cells treated with a medicament divided by the OD of the control cells (cells treated with DMSO). As represented in Table II, the compounds to be tested have inhibited the proliferation of cells in a dose-dependent manner.

[2] = system: A549 (human lung carcinoma); assay: Test on cell proliferation (MTT test), A549; conditions: 72 hours
Experimental: as §1, §2, §3
(§5) For the other cell lines (HCT15, LOVO, A549, A172, U373, U87), 1000 to 2000 cells are seeded in the well of a micro-well plate 24 hours before medicinal treatment. […]
as §4

[3] = system: U87 (human glioblastoma); assay: Test on cell proliferation (MTT test), U87; conditions: 72 hours
Experimental: as §1, §2, §3, §5, §4

[4] = system: HCT15 (cell lines of human colon adenocarcinoma); assay: Test on cell proliferation (MTT test), HCT15; conditions: 72 hours
Experimental: as §1, §2, §3, §5, §4

[5] = system: A172 (human glioblastoma); assay: Test on cell proliferation (MTT test), A172; conditions: 72 hours
Experimental: as §1, §2, §3, §5, §4

[6] = system: U373 (human glioblastoma); assay: Test on cell proliferation (MTT test), U373; conditions: 72 hours
Experimental: as §1, §2, §3, §5, §4

Compound: CCC(O)(CC(=O)O)c1cc2n(c(=O)c1CO)Cc1cc3ccccc3nc1-2 (stereo not drawn) [Example 4, 3-hydroxy-3-[8-(hydroxymethyl)-9-oxo-9,11-dihydroindolizino [1,2-b]quinolin-7-yl]pentanoic acid]
- PERCENTAGE OF CELL PROLIFERATION ([1]; 0.1 nM): 92.14%
- PERCENTAGE OF CELL PROLIFERATION ([1]; 1 nM): 97.14%
- PERCENTAGE OF CELL PROLIFERATION ([1]; 10 nM): 91.08%
- PERCENTAGE OF CELL PROLIFERATION ([1]; 100 nM): 86.28%
- PERCENTAGE OF CELL PROLIFERATION ([1]; 1 000 nM): 46.79%
- PERCENTAGE OF CELL PROLIFERATION ([1]; 10 000 nM): 27.80%
- PERCENTAGE OF CELL PROLIFERATION ([1]; 100 000 nM): 8.09%
- PERCENTAGE OF CELL PROLIFERATION ([2]; 0.1 nM): 71.00%
- PERCENTAGE OF CELL PROLIFERATION ([2]; 1 nM): 76.00%
- PERCENTAGE OF CELL PROLIFERATION ([2]; 10 nM): 71.00%
- PERCENTAGE OF CELL PROLIFERATION ([2]; 100 nM): 56.00%
- PERCENTAGE OF CELL PROLIFERATION ([2]; 1 000 nM): 36.00%
- PERCENTAGE OF CELL PROLIFERATION ([2]; 10 000 nM): 22.00%
- PERCENTAGE OF CELL PROLIFERATION ([2]; 100 000 nM): 12.00%
- PERCENTAGE OF CELL PROLIFERATION ([3]; 0.1 nM): 98.00%
- PERCENTAGE OF CELL PROLIFERATION ([3]; 1 nM): 101.00%
- PERCENTAGE OF CELL PROLIFERATION ([3]; 10 nM): 98.00%
- PERCENTAGE OF CELL PROLIFERATION ([3]; 100 nM): 74.00%
- PERCENTAGE OF CELL PROLIFERATION ([3]; 1 000 nM): 11.00%
- PERCENTAGE OF CELL PROLIFERATION ([3]; 10 000 nM): 6.00%
- PERCENTAGE OF CELL PROLIFERATION ([3]; 100 000 nM): 2.00%
- PERCENTAGE OF CELL PROLIFERATION ([4]; 0.1 nM): 91.00%
- PERCENTAGE OF CELL PROLIFERATION ([4]; 1 nM): 92.00%
- PERCENTAGE OF CELL PROLIFERATION ([4]; 10 nM): 86.00%
- PERCENTAGE OF CELL PROLIFERATION ([4]; 100 nM): 78.00%
- PERCENTAGE OF CELL PROLIFERATION ([4]; 1 000 nM): 54.00%
- PERCENTAGE OF CELL PROLIFERATION ([4]; 10 000 nM): 20.00%
- PERCENTAGE OF CELL PROLIFERATION ([4]; 100 000 nM): 7.00%
- PERCENTAGE OF CELL PROLIFERATION ([5]; 0.1 nM): 93.00%
- PERCENTAGE OF CELL PROLIFERATION ([5]; 1 nM): 92.00%
- PERCENTAGE OF CELL PROLIFERATION ([5]; 10 nM): 98.00%
- PERCENTAGE OF CELL PROLIFERATION ([5]; 100 nM): 97.00%
- PERCENTAGE OF CELL PROLIFERATION ([5]; 1 000 nM): 44.00%
- PERCENTAGE OF CELL PROLIFERATION ([5]; 10 000 nM): 31.00%
- PERCENTAGE OF CELL PROLIFERATION ([5]; 100 000 nM): 10.00%
- PERCENTAGE OF CELL PROLIFERATION ([6]; 0.1 nM): 86.00%
- PERCENTAGE OF CELL PROLIFERATION ([6]; 1 nM): 85.00%
- PERCENTAGE OF CELL PROLIFERATION ([6]; 10 nM): 89.00%
- PERCENTAGE OF CELL PROLIFERATION ([6]; 100 nM): 63.00%
- PERCENTAGE OF CELL PROLIFERATION ([6]; 1 000 nM): 30.00%
- PERCENTAGE OF CELL PROLIFERATION ([6]; 10 000 nM): 16.00%
- PERCENTAGE OF CELL PROLIFERATION ([6]; 100 000 nM): 2.00%

Compound: CCc1c2c(nc3ccccc13)-c1cc3c(c(=O)n1C2)COC(=O)CC3(O)CC (stereo not drawn) [Example 9, 5,12-diethyl-5-hydroxy-1,4,5,13-tetrahydro-3H,15H-oxepino[3′,4′:6,7]indolizino[1,2-b]quinoline-3,15-dione]
- PERCENTAGE OF CELL PROLIFERATION ([1]; 0.1 nM): 74.04%
- PERCENTAGE OF CELL PROLIFERATION ([1]; 1 nM): 62.05%
- PERCENTAGE OF CELL PROLIFERATION ([1]; 10 nM): 44.72%
- PERCENTAGE OF CELL PROLIFERATION ([1]; 100 nM): 34.01%
- PERCENTAGE OF CELL PROLIFERATION ([1]; 1 000 nM): 20.20%
- PERCENTAGE OF CELL PROLIFERATION ([1]; 10 000 nM): 4.34%
- PERCENTAGE OF CELL PROLIFERATION ([1]; 100 000 nM): 1.58%
- PERCENTAGE OF CELL PROLIFERATION ([2]; 0.1 nM): 91.00%
- PERCENTAGE OF CELL PROLIFERATION ([2]; 1 nM): 88.00%
- PERCENTAGE OF CELL PROLIFERATION ([2]; 10 nM): 50.00%
- PERCENTAGE OF CELL PROLIFERATION ([2]; 100 nM): 31.00%
- PERCENTAGE OF CELL PROLIFERATION ([2]; 1 000 nM): 23.00%
- PERCENTAGE OF CELL PROLIFERATION ([2]; 10 000 nM): 5.00%
- PERCENTAGE OF CELL PROLIFERATION ([2]; 100 000 nM): 3.00%
- PERCENTAGE OF CELL PROLIFERATION ([3]; 0.1 nM): 105.00%
- PERCENTAGE OF CELL PROLIFERATION ([3]; 1 nM): 72.00%
- PERCENTAGE OF CELL PROLIFERATION ([3]; 10 nM): 14.00%
- PERCENTAGE OF CELL PROLIFERATION ([3]; 100 nM): 7.00%
- PERCENTAGE OF CELL PROLIFERATION ([3]; 1 000 nM): 4.00%
- PERCENTAGE OF CELL PROLIFERATION ([3]; 10 000 nM): 2.00%
- PERCENTAGE OF CELL PROLIFERATION ([3]; 100 000 nM): 6.00%
- PERCENTAGE OF CELL PROLIFERATION ([4]; 0.1 nM): 94.00%
- PERCENTAGE OF CELL PROLIFERATION ([4]; 1 nM): 89.00%
- PERCENTAGE OF CELL PROLIFERATION ([4]; 10 nM): 59.00%
- PERCENTAGE OF CELL PROLIFERATION ([4]; 100 nM): 35.00%
- PERCENTAGE OF CELL PROLIFERATION ([4]; 1 000 nM): 15.00%
- PERCENTAGE OF CELL PROLIFERATION ([4]; 10 000 nM): 8.00%
- PERCENTAGE OF CELL PROLIFERATION ([4]; 100 000 nM): 3.00%
- PERCENTAGE OF CELL PROLIFERATION ([5]; 0.1 nM): 97.00%
- PERCENTAGE OF CELL PROLIFERATION ([5]; 1 nM): 89.00%
- PERCENTAGE OF CELL PROLIFERATION ([5]; 10 nM): 44.00%
- PERCENTAGE OF CELL PROLIFERATION ([5]; 100 nM): 36.00%
- PERCENTAGE OF CELL PROLIFERATION ([5]; 1 000 nM): 19.00%
- PERCENTAGE OF CELL PROLIFERATION ([5]; 10 000 nM): 3.00%
- PERCENTAGE OF CELL PROLIFERATION ([5]; 100 000 nM): 1.00%
- PERCENTAGE OF CELL PROLIFERATION ([6]; 0.1 nM): 89.00%
- PERCENTAGE OF CELL PROLIFERATION ([6]; 1 nM): 69.00%
- PERCENTAGE OF CELL PROLIFERATION ([6]; 10 nM): 24.00%
- PERCENTAGE OF CELL PROLIFERATION ([6]; 100 nM): 18.00%
- PERCENTAGE OF CELL PROLIFERATION ([6]; 1 000 nM): 8.00%
- PERCENTAGE OF CELL PROLIFERATION ([6]; 10 000 nM): 3.00%
- PERCENTAGE OF CELL PROLIFERATION ([6]; 100 000 nM): 1.00%
